Assay results published in ChEMBL document CHEMBL5512608, “Therapeutic potential of targeting polo-like kinase 4” (Eur J Med Chem, 2024).

Key:
[1] = Antiproliferative activity against human TNBC cells assessed as reduction in cell viability; type: functional, cell-based; conditions: Breast carcinoma cell
MDA-MB-468 = experiment: Antitumor activity against human MDA-MB-468 cells xenografted in nude mouse assessed as tumor growth inhibition at 20 mg/kg, po relative to control; type: functional; conditions: read-out: TGI
[2] = biological target: Serine/threonine-protein kinase PLK2 (Homo sapiens, UniProt Q9NYY3); experiment: Inhibition of full length PLK2 (unknown origin)
Sequence of Serine/threonine-protein kinase PLK2 (Q9NYY3 whole entry): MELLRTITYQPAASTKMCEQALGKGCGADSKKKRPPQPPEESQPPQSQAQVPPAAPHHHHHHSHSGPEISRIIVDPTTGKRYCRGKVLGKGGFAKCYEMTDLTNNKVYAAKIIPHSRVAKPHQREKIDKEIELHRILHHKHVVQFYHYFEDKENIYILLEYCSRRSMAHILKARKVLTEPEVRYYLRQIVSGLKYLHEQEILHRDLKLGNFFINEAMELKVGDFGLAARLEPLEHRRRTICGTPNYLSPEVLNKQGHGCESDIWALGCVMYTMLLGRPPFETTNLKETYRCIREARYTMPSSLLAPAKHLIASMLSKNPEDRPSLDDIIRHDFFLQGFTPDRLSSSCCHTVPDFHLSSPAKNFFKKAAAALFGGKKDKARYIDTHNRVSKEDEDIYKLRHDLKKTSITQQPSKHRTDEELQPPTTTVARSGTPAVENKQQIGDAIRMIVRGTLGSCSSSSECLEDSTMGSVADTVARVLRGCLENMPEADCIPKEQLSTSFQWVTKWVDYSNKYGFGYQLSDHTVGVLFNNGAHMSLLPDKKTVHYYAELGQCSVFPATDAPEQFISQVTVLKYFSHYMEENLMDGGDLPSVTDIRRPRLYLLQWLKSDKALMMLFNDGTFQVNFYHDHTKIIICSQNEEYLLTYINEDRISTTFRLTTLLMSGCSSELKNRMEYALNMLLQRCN

[3] = biological target: T1, Serine/threonine-protein kinase PLK4 (Homo sapiens, UniProt O00444); experiment: Inhibition of PLK4 (unknown origin)
T1 sequence (O00444 whole entry): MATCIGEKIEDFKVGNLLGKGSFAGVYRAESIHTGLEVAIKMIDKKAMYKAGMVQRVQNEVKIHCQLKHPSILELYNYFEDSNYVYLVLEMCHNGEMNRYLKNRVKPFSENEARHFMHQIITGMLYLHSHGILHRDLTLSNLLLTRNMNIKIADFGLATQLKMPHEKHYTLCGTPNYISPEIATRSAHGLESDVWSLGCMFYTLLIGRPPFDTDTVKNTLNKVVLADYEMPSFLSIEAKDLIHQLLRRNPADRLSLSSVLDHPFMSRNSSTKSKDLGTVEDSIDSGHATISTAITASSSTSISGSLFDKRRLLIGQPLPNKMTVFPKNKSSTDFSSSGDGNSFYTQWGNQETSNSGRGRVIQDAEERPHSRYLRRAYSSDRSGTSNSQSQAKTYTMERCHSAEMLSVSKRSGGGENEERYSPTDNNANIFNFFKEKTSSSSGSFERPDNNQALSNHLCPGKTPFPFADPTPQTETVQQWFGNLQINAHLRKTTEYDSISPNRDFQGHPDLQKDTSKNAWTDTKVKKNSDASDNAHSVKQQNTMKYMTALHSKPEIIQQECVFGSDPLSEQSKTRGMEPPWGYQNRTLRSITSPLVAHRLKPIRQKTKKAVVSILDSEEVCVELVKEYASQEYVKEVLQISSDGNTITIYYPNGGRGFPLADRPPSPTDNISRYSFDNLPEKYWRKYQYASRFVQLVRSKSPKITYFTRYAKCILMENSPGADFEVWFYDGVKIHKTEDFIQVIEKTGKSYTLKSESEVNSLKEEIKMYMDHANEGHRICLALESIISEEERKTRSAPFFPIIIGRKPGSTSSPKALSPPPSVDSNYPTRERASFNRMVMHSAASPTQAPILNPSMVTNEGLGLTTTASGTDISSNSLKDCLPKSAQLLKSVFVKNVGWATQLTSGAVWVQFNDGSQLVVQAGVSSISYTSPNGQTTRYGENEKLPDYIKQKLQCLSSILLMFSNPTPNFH

[4] = biological target: T1, Serine/threonine-protein kinase PLK4; experiment: Binding affinity to PLK4 (unknown origin) assessed as inhibition constant
[5] = Selectivity ratio of Ki for PLK4 (unknown origin) to Ki for AURORA-A (unknown origin)
NCI-H1299 = experiment: Antiproliferative activity against human NCI-H1299 cells assessed as reduction in cell viability measured after 72 hrs by AlamarBlue assay; type: functional, cell-based; conditions: NCI-H1299, 72 h
U-87 MG = experiment: Antiproliferative activity against human U-87 MG cells assessed as reduction in cell viability measured after 72 hrs by AlamarBlue assay; type: functional, cell-based, U-87MG ATCC
A2780 = experiment: Antiproliferative activity against human A2780 cells assessed as reduction in cell viability measured after 72 hrs by AlamarBlue assay; type: functional, cell-based; conditions: A2780, 72 h
MDA-MB-231 = experiment: Antiproliferative activity against human MDA-MB-231 cells assessed as reduction in cell viability measured after 72 hrs by AlamarBlue assay; type: functional, cell-based; conditions: MDA-MB-231, 72 h
HCT-116 = experiment: Antiproliferative activity against human HCT-116 cells assessed as reduction in cell viability measured after 72 hrs by AlamarBlue assay; type: functional, cell-based; conditions: HCT-116, 72 h

Question: With `CC(=O)Nc1nccc(-c2ccc3c(/C=C/c4ccc(CN(C)C)cc4)n[nH]c3c2)n1` as the molecule, how does the IC50 [1] read?
Answer: 60 nM

Question: And the inhibition in vivo at 20 mg/kg (MDA-MB-468)?
Answer: 80%

Question: Which IC50 [2] does the source give for `Cn1c2ccccc2c2c3c(c4c5ccccc5n(CCC#N)c4c21)CNC3=O` [GO-6976] here?
Answer: > 19000 nM

Question: Which results are given for `CN(C)Cc1ccc(/C=C/c2n[nH]c3cc(-c4ccnc(N)n4)ccc23)cc1`?
Answer: IC50 [1]: 60 nM; inhibition in vivo at 20 mg/kg (MDA-MB-468): 80%; IC50 [3]: 11.2 nM

Question: For `c1ccc(CNc2nc(Nc3cccc(N4CCOCC4)c3)nc3[nH]ncc23)cc1`, which IC50 [3] is on record?
Answer: 2100 nM

Question: With `COc1c(Nc2cc(C)[nH]n2)nc(Sc2ccc(NC(=O)C3CC3)cc2)nc1N1CCN(C)CC1` as the molecule, how does the Ki [4] read?
Answer: 15 nM

Question: What about the Ratio Ki [5] of the same molecule?
Answer: 15

Question: Which IC50 [3] does the source give for `CNC(=O)c1ccccc1Nc1nc(Nc2ccc(S(C)(=O)=O)cc2)nc2[nH]ncc12` here?
Answer: 27 nM

Question: Which IC50 (NCI-H1299) does the source give for `COCCOc1ccc2cc1OCC(=O)N(C)CCCN(C)Cc1c[nH]c3ncnc(c13)N2` here?
Answer: 5 nM

Question: What about the IC50 (U-87 MG) of the same molecule?
Answer: 5 nM

Question: And the IC50 (A2780)?
Answer: 5 nM

Question: And the IC50 (MDA-MB-231)?
Answer: 5 nM

Question: And the IC50 (HCT-116)?
Answer: 5 nM

Question: With `COc1c(Nc2cc(C)[nH]n2)nc(Sc2ccc(S(=O)(=O)Cc3cccc([N+](=O)[O-])c3F)cc2F)nc1N1CCCCC1` as the molecule, how does the Ratio Ki [5] read?
Answer: 2100
